# Assay results taken from patent publication US12195493B2, “Reversibly blocked nucleoside analogues and their use” (MGI Tech Co., Ltd., priority 2016, dated 2025).
# Entries after “also recorded” stand apart in the source; their conditions may differ.
# Experiments:
# [1] = 3′-O-Cyanoethyl cleavage in solution or on Biochips; settings: added reagent in cleavage buffer, FIGS. 2 and 3
# [2] = system: polymerase; experiment: Polymerase incorporation in sequencing by synthesis on nanoball arrays (FIG. 1); type: biochemical; settings: compared with unlabeled (cold) control 3′-O-azidomethyl-dTTP
# Protocol: (§1) Allenyl-dTTP and cyanoethenyl-dTTP were incubated at room temperature for 24 hours, or 65° C. for 2 hours. Fresh mixes were also made the day of the experiment. Allenyl-dTTP or cyanoethenyl-dTTP were mixed with unlabeled AGC (AGC-Cold) and used as both the hot (labeled) and cold (unlabeled) chase. Nanoball arrays were imaged to obtain a control image. Then, the array was incubated with labeled mixes to check for incorporation on unblocked ends. […] Moreover, both allenyl-dTTP and cyanoethenyl-dTTP are stable at room temperature for 24 hours and 65° C. for 2 hours as indicated by their ability to efficiently incorporate into polymerization product and thereby block subsequent polymerization and incorporation of the hot chase label.
# [3] = Stability after incubation, read out by incorporation and blocking of hot chase label; type: physicochemical
# Protocol: as §1
# [4] = Monitoring cleavage of 3′-O reversible blocker by LC-MS (Example 2); type: physicochemical
# Protocol: Cleavage reactions were performed using 5 mg of compound 8 (3′-O-cyanoethyenyl-thymidine) in 0.25 mL of acetonitrile and 0.25 mL of buffer. Cleavage was monitored by LC-MS and the results are depicted in the table below.
# [5] = Cleavage studies with a variety of nucleophiles at 50° C. (Example 6); type: physicochemical
# Protocol: Cleavage studies were performed according to the scheme shown below using a variety of nucleophiles. The nucleophiles, concentration, pH, and solvent are indicated for each study. The nucleoside analogue containing a 3′-O-blocking group and a linking group were treated with a nucleophile at 50° C. in solvent to form analogues having both the blocking group and linking group cleaved 13 and only the linking group cleaved 15. SM indicates starting material.
# Table of Results (Experimental Conditions: T=50° C.; 1.0 mg 12/mL solvent).
compound,measurement,setting,value
F [F^−],effect on cleavage efficiency,[1],improved effect
O=P([O-])([O-])OP(=O)([O-])[O-].[K+].[K+].[K+].[K+] [K4PPi],effect on cleavage efficiency,[1],improved effect
"C=C=CO[C@H]1C[C@H](n2cc(C)c(=O)[nH]c2=O)O[C@@H]1COP(=O)(O)OP(=O)(O)OP(=O)(O)O [allenyl-dTTP, 3′-O-allenyl-thymidine triphosphate]",effectiveness as polymerase substrate for sequencing by synthesis,[2],"as effective a polymerase substrate for sequencing by synthesis as the unlabeled control 3′-O-azidomethyl-dTTP; also recorded: as effective polymerase substrates for sequencing as the cold control, 3′-azidomethyl-dTTP"
same,stability,[3]; 65° C. for 2 hours,stable
same,stability,[3]; room temperature for 24 hours,stable
"Cc1cn([C@H]2C[C@H](OC=CC#N)[C@@H](CO)O2)c(=O)[nH]c1=O [compound 8, 3′-O-cyanoethenyl-thymidine]",time to complete cleavage,[4]; 10 equivalents of dimethylamine in acetonitrile/0.1 M TEAB,20 to 30 min
same,time to complete cleavage,[4]; 40 equivalents of dimethylamine in acetonitrile/0.1 M TEAB,≤ 10 min
same,time to complete cleavage,[4]; 40 equivalents of dimethylamine in acetonitrile/0.5 M phosphate buffer,10 to 20 min
same,time to complete cleavage,[4]; 40 equivalents of dimethylamine in acetonitrile/1 M Tris buffer,≤ 10 min
N#C/C=C/O[C@H]1C[C@H](n2cc(C#CCNC(=O)C(F)(F)F)c(=O)[nH]c2=O)O[C@@H]1CO [compound 12],amount of the product obtained (SM = starting material),"[5]; Entry 22, Morpholine 1.0 M, pH 9.0, Water + 10% MeCN, t = 1 h",25% SM + 40% of (15) + 35% of unidentified species
same,amount of the product obtained (SM = starting material),"[5]; Entry 22, Morpholine 1.0 M, pH 9.0, Water + 10% MeCN, t = 18 h",No SM 40% of (15) + 60% of unidentified species
same,amount of the product obtained (SM = starting material),"[5]; Entry 24, Cleland's reagent (dithiothreitol) 1.0 M, pH 9.0, Water + 10% MeCN, t = 1 h",5% SM + 95% of unidentified species
same,amount of the product obtained (SM = starting material),"[5]; Entry 24, Cleland's reagent (dithiothreitol) 1.0 M, pH 9.0, Water + 10% MeCN, t = 18 h",No SM + unidentified species
same,amount of the product obtained (SM = starting material),"[5]; Entry 25, 4-Methoxy-N-methylaniline 1.0 M, pH 8.3, Water/MeCN (1:2), t = 1 h",95% SM + 5% of unidentified species
same,amount of the product obtained (SM = starting material),"[5]; Entry 25, 4-Methoxy-N-methylaniline 1.0 M, pH 8.3, Water/MeCN (1:2), t = 18 h",95% SM + 5% of unidentified species
same,amount of the product obtained (SM = starting material),"[5]; Entry 26, N,N′-Dimethylene diamine 1.0 M, pH 9.0, Water + 10% MeCN, t = 1 h",5% SM + 20% of (15) + 75% of unidentified species
same,amount of the product obtained (SM = starting material),"[5]; Entry 26, N,N′-Dimethylene diamine 1.0 M, pH 9.0, Water + 10% MeCN, t = 18 h",No SM + 20% of (15) + 80% of unidentified species
same,amount of the product obtained (SM = starting material),"[5]; Entry 27, N-Methylhydroxyl amine hydrochloride 1.0 M, pH 9.0, Water + 10% MeCN, t = 1 h",16% Product (13) + 10% of (15) + 74% of unidentified species
same,amount of the product obtained (SM = starting material),"[5]; Entry 27, N-Methylhydroxyl amine hydrochloride 1.0 M, pH 9.0, Water + 10% MeCN, t = 18 h",10% of (15) + 90% of unidentified species
same,amount of the product obtained (SM = starting material),"[5]; Entry 28, N,N′-dimethyl-cis-cyclohexane-1,2-diamine 1.0 M, pH 9.0, Water/MeCN (2:1), t = 1 h",60% SM + 35% of (15) + 5% of unidentified species
same,amount of the product obtained (SM = starting material),"[5]; Entry 28, N,N′-dimethyl-cis-cyclohexane-1,2-diamine 1.0 M, pH 9.0, Water/MeCN (2:1), t = 18 h",30% SM + 50% of (15) + 20% of unidentified species
"Cc1cn([C@H]2C[C@H](OC=CC#N)[C@@H](COP(=O)(O)OP(=O)(O)OP(=O)(O)O)O2)c(=O)[nH]c1=O [cyanoethenyl-dTTP, 3′-O-cyanoethenyl-thymidine triphosphate]",effectiveness as polymerase substrate for sequencing by synthesis,[2],as effective a polymerase substrate for sequencing by synthesis as the unlabeled control 3′-O-azidomethyl-dTTP
same,effectiveness as polymerase substrate for sequencing by synthesis,[2]; listed as cyanoethyl-dTTP,"as effective polymerase substrates for sequencing as the cold control, 3′-azidomethyl-dTTP"
same,stability,[3]; 65° C. for 2 hours,stable
same,stability,[3]; room temperature for 24 hours,stable
